Among the data in patent publication US20100010041A1, “DIFLUORINATED PIPERIDINES FOR TREATMENT OF ALZHEIMER'S DISEASE AND RELATED CONDITIONS” (priority 2006, published 2010) are IC50 values, retold here.

By IC50 is commonly meant the concentration that gives 50% inhibition.

In this assay the target is T1, γ-secretase (Homo sapiens, UniProt P49768).
T1 construct: Human SH-SY5Y neuroblastoma cells overexpressing the direct γ-secretase substrate SPA4CT; endogenous in cells; host or cells: human SH-SY5Y neuroblastoma cells (stably overexpressing the substrate SPA4CT, induced with sodium butyrate)
As to the kind of experiment: Cell-Based γ-Secretase Assay (Aβ(40)/Aβ(42) in media of SH-SY5Y cells overexpressing SPA4CT). The conditions noted are these: Human SH-SY5Y neuroblastoma cells overexpressing SPA4CT; values given as ranges; read-out: IC50 values for Aβ(1-42) inhibition. Here is the method: Cell-Based γ-Secretase Assay
Human SH-SY5Y neuroblastoma cells overexpressing the direct γ-secretase substrate SPA4CT were induced with sodium butyrate (10 mM) for 4 hours prior to plating. Cells were plated at 35,000 cells/well/100 μl in 96-well plates in phenol red-free MEM/10% FBS, 50 mM HEPES, 1% Glutamine and incubated for 2 hrs at 37° C., 5% CO2.
Compounds for testing were diluted into Me2SO to give a ten point dose-response curve. Typically 10 μl of these diluted compounds in Me2SO were further diluted into 182 μl dilution buffer (phenol red-free MEM/10% FBS, 50 mM HEPES, 1% Glutamine) and 10 μl of each dilution was added to the cells in 96-well plates (yielding a final Me2SO concentration of 0.5%). Appropriate vehicle and inhibitor controls were used to determine the window of the assay.
After incubation overnight at 37° C., 5% CO2, 10 μl and 50 μl media were transferred into a fresh Costar round-bottom 96-well plate for detection of Aβ(40) and Aβ(42) peptides, respectively. 40 μl Origen buffer (PBS, 2% BSA, 0.2% Tween-20) was added to the Aβ(40) wells followed by the addition of 25 μl the respective antibody premixes to the wells: • Aβ(40) premix: 1 μg/ml ruthenylated G2-10 antibody, 4 μg/ml biotinylated 4G8 antibody diluted in Origen buffer • Aβ(42) premix: 0.5 μg/ml ruthenylated G2-11 antibody, 4 μg/ml biotinylated 4G8 antibody diluted in Origen buffer
(Biotinylated 4G8 Antibody Supplied by Signet Pathology Ltd; G2-10 and G2-11 Antibodies Supplied by Chemicon)
After overnight incubation of the assay plates on a shaker at 4° C., the Origen M8 Analyser (Igen Inc.) was calibrated according to the manufacturer's instructions. 25 μl of streptavidin magnetic bead (Dynal) premix (400 μg/ml streptavidin beads/ml in Origen buffer) was added to the assay plates and incubated on a shaker for 15 minutes. 150 μl Origen buffer was added to each well and the plates were read on the Origen M8 Analyser according to the manufacturer's instructions.
Cell viability was measured in the corresponding cells after removal of the media for the Aβ assays by a colorimetric cell proliferation assay (CellTiter 96™ AQ assay, Promega) utilizing the bioreduction of MTS (Owen's reagent) to formazan according to the manufacturer's instructions. Briefly, 5 μl of 10×MTS/PES was added to the remaining 50 μl of media before returning to the incubator. The optical density was read at 495 nm after ˜4 hours.
LD50 and IC50 values for inhibition of Aβ(40) and Aβ(42) were calculated by nonlinear regression fit analysis using the appropriate software (eg. Excel fit). The total signal and the background were defined by the corresponding Me2SO and inhibitor controls.

For the compound `CC(C)(C)C#CCN1[C@H](c2ccc(C(F)(F)F)cc2)[C@@H](CC(=O)O)C(F)(F)C[C@H]1c1ccc(C(F)(F)F)cc1` (relative stereo) [Example 23, {1-(4,4-dimethylpent-2-yn-1-yl)-4,4-difluoro-2,6-bis[4-(trifluoro-methyl)phenyl]piperidin-3-yl}acetic acid], the IC50 was 2000 to 3000 nM.

Consider `CC(C)(C)C[C@@H](CCc1ccc(C(F)(F)F)cc1)N1CCC(F)(F)[C@H](CC(=O)O)[C@H]1c1ccc(C(F)(F)F)cc1` (relative stereo) [Example 14, {1-(3,3-dimethyl-1-{2-[4-(trifluoromethyl)phenyl]ethyl}butyl)-4,4-difluoro-2-[4-(trifluoromethyl)phenyl]piperidin-3-yl}acetic acid], for which the IC50 lay in the range of 2000 to 3000 nM. For `CC(C)(C)/C=C\[C@H](CCC(F)(F)F)N1CCC(F)(F)[C@H](CC(=O)O)[C@H]1c1ccc(C(F)(F)F)cc1` [Example 6, {1-[(2Z)-4,4-dimethyl-1-(3,3,3-trifluoropropyl)pent-2-en-1-yl]-4,4-difluoro-2-[4-(trifluoromethyl)phenyl]piperidin-3-yl}acetic acid] the value was 1000 to 1500 nM. To `CC(C)(C)CC[C@H](CCC(F)(F)F)N1CCC(F)(F)[C@H](CC(=O)O)[C@H]1c1ccc(C(F)(F)F)cc1` (single isomer, unassigned) [Example 22, {1-[4,4-dimethyl-1-(3,3,3-trifluoropropyl)pentyl]-4,4-difluoro-2-[4-(trifluoromethyl)phenyl]piperidin-3-yl}acetic acid] belongs 1000 to 1500 nM; to `CC(C)(C)CC[C@H](CC(C)(C)C)N1CCC(F)(F)[C@H](CC(=O)O)[C@H]1c1ccc(C(F)(F)F)cc1` (relative stereo) [Example 11, {1-[1-(2,2-dimethylpropyl)-4,4-dimethylpentyl]-4,4-difluoro-2-[4-(trifluoromethyl)phenyl]-piperidin-3-yl}acetic acid], 1500 to 2000 nM; to `CC(C)(C)CC[C@H](c1ccc(C(F)(F)F)cc1)N1CCC(F)(F)[C@H](CC(=O)O)[C@H]1c1ccc(C(F)(F)F)cc1` (relative stereo) [Example 1, {1-{4,4-dimethyl-1-[4-(trifluoromethyl)phenyl]pentyl}-4,4-difluoro-2-[4-(trifluoromethyl)phenyl]piperidin-3-yl}acetic acid], 1000 to 1500 nM. Take `CC(C)(C)/C=C\[C@H](CCC(F)(F)F)N1CCC(F)(F)[C@H](CC(=O)O)[C@H]1c1ccc(C(F)(F)F)cc1` (relative stereo) [Example 20, {1-[(2Z)-4,4-dimethyl-1-(3,3,3-trifluoropropyl)pent-2-en-1-yl]-4,4-difluoro-2-[4-(trifluoromethyl)phenyl]piperidin-3-yl}acetic acid]: the IC50 is less than 500 nM.

With `CC(C)(C)CCC(CCC(C)(C)C)N1CCC(F)(F)[C@H](CC(=O)O)[C@H]1c1ccc(C(F)(F)F)cc1` (relative stereo) [Example 15, {1-[1-(3,3-dimethylbutyl)-4,4-dimethylpentyl]-4,4-difluoro-2-[4-(trifluoromethyl)phenyl]piperidin-3-yl}acetic acid], the IC50 lay within 1500 to 2000 nM. To `CC(C)(C)/C=C\[C@H](CC(C)(C)C)N1CCC(F)(F)[C@H](CC(=O)O)[C@H]1c1ccc(C(F)(F)F)cc1` (relative stereo) [Example 12, {1-[(2Z)-1-(2,2-dimethylpropyl)-4,4-dimethylpent-2-en-1-yl]-4,4-difluoro-2-[4-(trifluoromethyl)phenyl]piperidin-3-yl}acetic acid] belongs 2000 to 3000 nM; to `CC(C)(C)CCCN1[C@H](c2ccc(C(F)(F)F)cc2)[C@@H](CC(=O)O)C(F)(F)C[C@H]1c1ccc(C(F)(F)F)cc1` (relative stereo) [Example 24, {1-(4,4-dimethylpentyl)-4,4-difluoro-2,6-bis[4-(trifluoromethyl)phenyl]piperidin-3-yl}acetic acid], 1000 to 1500 nM. For `CC(C)(C)C#C[C@H](CCCC(C)(C)C)N1CCC(F)(F)[C@H](CC(=O)O)[C@H]1c1ccc(C(F)(F)F)cc1` (relative stereo) [Example 17, {1-[1-(3,3-dimethylbut-1-yn-1-yl)-5,5-dimethylhexyl]-4,4-difluoro-2-[4-(trifluoromethyl)phenyl]piperidin-3-yl}acetic acid] the value was 1000 to 1500 nM; for `CC(C)(C)CC[C@H](CCC(F)(F)F)N1CCC(F)(F)[C@H](CC(=O)O)[C@H]1c1ccc(C(F)(F)F)cc1` (single isomer, unassigned) [Example 18, {1-[4,4-dimethyl-1-(3,3,3-trifluoropropyl)pentyl]-4,4-difluoro-2-[4-(trifluoromethyl)phenyl]piperidin-3-yl}acetic acid], less than 500 nM; for `C=C(C)C#C[C@H](CCC(F)(F)F)N1CCC(F)(F)[C@H](CC(=O)O)[C@H]1c1ccc(C(F)(F)F)cc1` (relative stereo) [Example 2, {4,4-difluoro-1-[4-methyl-1-(3,3,3-trifluoropropyl)pent-4-en-2-yn-1-yl]-2-[4-(trifluoromethyl)phenyl]piperidin-3-yl}acetic acid], 1500 to 2000 nM. To `CC(C)(C)C#C[C@H](CCC(F)(F)F)N1CCC(F)(F)[C@H](CC(=O)O)[C@H]1c1ccc(C(F)(F)F)cc1` (single isomer, unassigned) [Example 19, {1-[4,4-dimethyl-1-(3,3,3-trifluoropropyl)pent-2-yn-1-yl]-4,4-difluoro-2-[4-(trifluoromethyl)phenyl]piperidin-3-yl}acetic acid] belongs less than 500 nM; to `CC(C)CC[C@H](c1ccc(C(F)(F)F)cc1)N1CCC(F)(F)[C@H](CC(=O)O)[C@H]1c1ccc(C(F)(F)F)cc1` (relative stereo) [Example 8, {4,4-difluoro-1-(4-methyl-1-[4-(trifluoromethyl)phenyl]pentyl}-2-[4-(trifluoromethyl)phenyl]piperidin-3-yl}acetic acid], 2000 to 3000 nM; to `C=C(C)C#C[C@H](CCC(=C)C)N1CCC(F)(F)[C@H](CC(=O)O)[C@H]1c1ccc(C(F)(F)F)cc1` (relative stereo) [Example 7, {4,4-difluoro-1-[4-methyl-1-(3-methylbut-3-en-1-yl)pent-4-en-2-yn-1-yl]-2-[4-(trifluoromethyl)phenyl]piperidin-3-yl}acetic acid], 1500 to 2000 nM.
